Laboratory results from patent EP4781984A1 (Beyang Therapeutics Co., Ltd., priority 2023, dated 2025).
In brackets after ≈: the same amount, converted by molar mass. One block for each compound: values may come before it.

Assays:
[1] = Thermodynamic solubility test; format: physicochemical; conditions: buffer solution, aqueous buffer, thermodynamic from solid; thermodynamic solubility, room temperature, 8 hours shaking; buffers pH 2.0, 6.5, 7.4 used, pH of the tabulated value not given
Procedure, shortened: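 Samples sonicated 10 min, shaken 8 h at room temperature, re-sonicated and centrifuged at 13000 rpm for 15 min. Supernatant recentrifuged and analysed by LC-MS, with concentrations quantified against a 3–5 point calibration curve.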

[2] = tested on: melanin; test: Compound binding to melanin; format: in vitro ADME; conditions: cuttlefish (Sepia officinalis), melanin suspension (1 mg/mL), percentage of free drug (not bound to melanin), 2 µM compound, melanin 1 mg/mL in PBS pH 7.4, 37°C
Procedure, shortened: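 Compound at 2 µM final incubated with 1 mg/mL Sepia melanin in PBS pH 7.4, 37°C, 2 hours with shaking; blank in PBS with 0.1% BSA. Supernatant concentration by LC-MS/MS. Fb = 100 − (Ctest/Ccontrol) × 100%.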

[3] = Ophthalmic formulations based on in situ salt formation technology: composition and state (Example 8); format: physicochemical; conditions: for State Description: pH ~7; for State Description: pH / State Description: state: Table 17: 5 mg/mL, HP-β-CD 15, Poloxamer 188 1, Gelrite 0.15, Tris-HCl (pH 6.8) 25mM
Description: In the following ophthalmic formulation preparation examples, "solution" refers to a clear, transparent liquid without visible insoluble matter. "Near-clear solution" refers to a liquid that appears close to a solution upon visual observation but may contain a small amount of insoluble particles or have a slightly opaque color. "Suspension" refers to a liquid that is visibly turbid or opaque. "Gel" refers to a completely or partially gel-like solid.
Example 8: Ophthalmic Formulation Based on In Situ Salt Formation Technology
Therefore, by preparing ophthalmic formulation compositions based on in situ salt formation technology, the solubility of the compounds can be further improved.
According to the formulation composition shown in the table below, weigh the compound powder, add 50% of the total volume (v/v) of a 30% (w/v) aqueous solution of hydroxypropyl-β-cyclodextrin (containing surfactant), and disperse by sonication; next, add an appropriate volume of pH regulator and sonicate until clear; then, add an equal volume of buffer containing solubilizer, viscosity modifier, etc., for dilution, and immediately vortex to mix; finally, add an appropriate volume of alkali regulator to adjust the solution pH to approximately 7, to prepare an eye drop formulation.
Using the in situ salt formation method, the compound is first dispersed in a solution containing Hydroxypropyl-β-cyclodextrin, then different acids are added to adjust the pH to 3-5, allowing the compound to fully or nearly fully dissolve, followed by adding the remaining components and adjusting the pH to approximately 7. […] Based on the visual dissolution effect after acid addition, methanesulfonic acid, acetic acid, and lactic acid were preliminarily selected as pH regulators. The preliminarily selected acids were used in subsequent tests with higher compound concentrations. Table 18 Formulation Composition and State

[4] = Effect of gellan gum on formulation viscosity and viscosity change after adding simulated tear fluid (Example 10); format: physicochemical; conditions: compound 5 mg/mL, Gellan Gum 0.15% w/v; for Viscosity after Adding STF: simulated tear fluid added, volume ratio 3.6:1
Experimental: Example 10: Effect of Gellan Gum on Formulation Viscosity and Viscosity Change after Adding Simulated Tear Fluid
This example investigates the effect of gellan gum on formulation viscosity and simulates the scenario of eye drop instillation by adding simulated tear fluid to the formulation at a volume ratio of 3.6:1. Table 23 Effect of Gellan Gum on Formulation Viscosity
The ophthalmic drop formulation in this example was prepared using the preparation method from Example 8 (i.e., one type of Formulation II of the present invention). Except for compound , the other components in the formulation are: 30% Hydroxypropyl-β-cyclodextrin solution (containing 2% polyoxyethylene castor oil EL): 50 mM Tris(hydroxymethyl)aminomethane-Hydrochloric Acid Buffer (containing 2% Poloxamer 188, 0.3% Gellan Gum Gelrite, w/v) = 50:50 v/v, adjusted to pH using Methanesulfonic Acid and Tris(hydroxymethyl)aminomethane.

[5] = 0.05M Fumaric Acid 10, 0.5M Tris 0.5
[6] = 1M Acetic Acid 1, 0.5M Tris 0.5
[7] = 1M Lactic Acid 1, 0.5M Tris 0.5
[8] = 1M Maleic Acid 1, 0.5M Tris 1.5
[9] = 1M Methanesulfonic Acid 1, 0.5M Tris 0.5
[10] = 1M Tartaric Acid 1, 0.5M Tris 1

- solubility at 8 h [1]: 0.564 mg/mL (≈ 1060 µM)
- fraction unbound at 2 h, 2 µM [2]: 0.01 to 0.05
- State Description ([3]; Table 21, Compound 10 mg/ml, 1M Methanesulfonic Acid 1%, Polyoxyethylene castor oil EL 1%, no 0.5M Tris): near-clear solution
- State Description ([3]; Table 21, Compound 20 mg/ml, 1M Methanesulfonic Acid 4%, Polyoxyethylene castor oil EL 1%, 0.5M Tris 1%): near-clear solution
- Formulation Viscosity ([4]; Test temperature 25 °C): 23.27 mPa.s
- Viscosity after Adding STF ([4]; Test temperature 25 °C): 27.26 mPa.s
- Formulation Viscosity ([4]; Test temperature 37 °C): 9.53 mPa.s
- Viscosity after Adding STF ([4]; Test temperature 37 °C): 24.06 mPa.s
SMILES: O=C(NC1CC1)c1cccc(F)c1Sc1ccc2c(/C=C/c3cnn(CCCN4CCCC4)c3)n[nH]c2c1 [Compound I-44, N-cyclopropyl-3-fluoro-2-({3-[(E)-2-{1-[3-(pyrrolidin-1-yl)propyl]-1H-pyrazol-4-yl}ethenyl]-1H-indazol-6-yl}sulfanyl)benzamide]

- solubility at 8 h [1]: 0.319 mg/mL (≈ 635 µM)
- fraction unbound at 2 h, 2 µM [2]: 0.01 to 0.05
- State Description ([3]; Compound 20 mg/ml, 1M Methanesulfonic Acid 4%, Polyoxyethylene castor oil EL 1%, 0.5M Tris 1%): solution
- State Description: pH [3, 5]: ~7
- State Description: state [3, 5]: suspension
- State Description: pH [3, 6]: ~7
- State Description: state [3, 6]: near-clear solution
- State Description: pH [3, 7]: ~7
- State Description: state [3, 7]: near-clear solution
- State Description: pH [3, 8]: ~7
- State Description: state [3, 8]: near-clear solution
- State Description: pH [3, 9]: ~7
- State Description: state [3, 9]: near-clear solution
- State Description: pH [3, 10]: ~7
- State Description: state [3, 10]: near-clear solution
- Formulation Viscosity ([4]; Test temperature 25 °C): 19.01 mPa.s
- Viscosity after Adding STF ([4]; Test temperature 25 °C): 24.19 mPa.s
- Formulation Viscosity ([4]; Test temperature 37 °C): 7.97 mPa.s
- Viscosity after Adding STF ([4]; Test temperature 37 °C): 21.95 mPa.s
SMILES: CCNC(=O)c1cc(F)ccc1Sc1ccc2c(/C=C/c3ccc(CN4CCCC4)cn3)n[nH]c2c1 [Compound I-97, N-ethyl-5-fluoro-2-({3-[(E)-2-{5-[(pyrrolidin-1-yl)methyl]pyridin-2-yl}ethenyl]-1H-indazol-6-yl}sulfanyl)benzamide]
- State Description ([3]; Compound 10 mg/ml, 1M Acetic Acid 2%, no Polyoxyethylene castor oil EL, 0.5M Tris 1%): pH ~7, near-clear solution, with opalescence
- State Description ([3]; Compound 10 mg/ml, 1M Lactic Acid 2%, no Polyoxyethylene castor oil EL, 0.5M Tris 1%): pH ~7, near-clear solution, with opalescence
- State Description ([3]; Compound 10mg/ml, 1M Methanesulfonic Acid 2%, no Polyoxyethylene castor oil EL, 0.5M Tris 1%): pH ~7, near-clear solution, with opalescence
- State Description ([3]; Compound 15 mg/ml, 1M Methanesulfonic Acid 3%, no Polyoxyethylene castor oil EL, 0.5M Tris 1%): pH ~7, near-clear solution, with opalescence
- State Description ([3]; Compound 20 mg/ml, 1M Methanesulfonic Acid 4%, no Polyoxyethylene castor oil EL, 0.5M Tris 0.5%): pH ~7, near-clear solution, with opalescence
